{"source": "patent US20060089499A1", "about": "“Pyrazolopyrimidines and the use thereof for controlling harmful organisms” (priority 2002, published 2006)", "data": [{"assay": "physchem", "settings": "log P", "values": [{"smiles": "C[C@H](Nc1c(-c2c(F)cc(F)cc2F)c(Cl)nc2c(Cl)cnn12)C(F)(F)F", "note": "[Example 3, N-[3,5-dichloro-6-(2,4,6-trifluorophenyl)pyrazolo[1,5-a]pyrimidin-7-yl]-N-[(1S)-2,2,2-trifluoro-1-methylethyl]amine]", "chromatographic logP": 4.43}, {"smiles": "CC(C)C(C)Nc1c(-c2ccc(F)cc2Cl)cnc2c(Cl)cnn12", "note": "(centres unmarked) [Example 5, N-[3-chloro-6-(2-chloro-4-fluorophenyl)pyrazolo[1,5-a]pyrimidin-7-yl]-N-(1,2-dimethylpropyl)amine]", "chromatographic logP": 4.53}, {"smiles": "Fc1cc(F)c(-c2c(Cl)nc3c(Cl)cnn3c2Cl)c(F)c1", "note": "[Example 442, 3,5,7-trichloro-6-(2,4,6-trifluorophenyl)pyrazolo[1,5-a]pyrimidine]", "chromatographic logP": 3.97}, {"smiles": "C[C@H](Nc1c(-c2ccc(F)cc2Cl)c(Cl)nc2c(C#N)cnn12)C(F)(F)F", "note": "(single isomer, unassigned) [Example 1]", "chromatographic logP": 3.88}, {"smiles": "CO/N=C\\c1cnn2c(NC(C)C(C)(C)C)c(-c3ccc(F)cc3Cl)c(Cl)nc12", "note": "(centres unmarked) [Example 402, 3-methoximino-5-chloro-6-(2-chloro-4-fluorophenyl)-7-(1,2,2-trimethylpropylamino)pyrazolo[1,5a]pyrimidine]", "chromatographic logP": 5.48}, {"smiles": "CC(C)C(C)Nc1c(-c2c(F)cccc2Cl)cnc2c(C#N)cnn12", "note": "(centres unmarked) [Example 4, 6-(2-chloro-6-fluorophenyl)-7-[(1,2-dimethylpropyl)amino)pyrazolo[1,5-a]pyrimidine-3-carbonitrile]", "chromatographic logP": 3.78}, {"smiles": "N#Cc1cnn2c(Cl)c(-c3ccc(F)cc3Cl)c(Cl)nc12", "note": "[Example 441, 3-cyano-5,7-dichloro-6-(2-chloro-4-fluorophenyl)pyrazolo[1,5-a]pyrimidine]", "chromatographic logP": 3.48}, {"smiles": "Fc1ccc(-c2cnc3c(Cl)cnn3c2Cl)c(Cl)c1", "note": "[Example 443, 3,7-dichloro-6-(2-chloro-4-fluorophenyl)pyrazolo[1,5-a]pyrimidine]", "chromatographic logP": 3.56}]}, {"assay": "physchem", "settings": "logP", "values": [{"smiles": "C[C@H](Nc1c(-c2c(F)cccc2Cl)c(Cl)nc2c(C#N)cnn12)C(F)(F)F", "note": "[compound 12]", "chromatographic logP": 3.73}, {"smiles": "N#Cc1cnn2c(NCC3CC3)c(-c3c(F)cccc3Cl)c(Cl)nc12", "note": "[compound 29]", "chromatographic logP": 3.74}, {"smiles": "CC1CCN(c2c(-c3c(F)cccc3Cl)c(Cl)nc3c(C#N)cnn23)CC1", "note": "[compound 28]", "chromatographic logP": 4.77}, {"smiles": "CC(C)CNc1c(-c2ccc(F)cc2F)c(Cl)nc2c(C#N)cnn12", "note": "[compound 148]", "chromatographic logP": 3.87}, {"smiles": "CC(C)Nc1c(-c2c(F)cc(F)cc2F)c(Cl)nc2c(C#N)cnn12", "note": "[compound 52]", "chromatographic logP": 3.54}, {"smiles": "N#Cc1cnn2c(N3CCOCC3)c(-c3c(F)cccc3Cl)c(Cl)nc12", "note": "[compound 14]", "chromatographic logP": 3.26}, {"smiles": "C=C(C)CN(CC)c1c(-c2c(F)cccc2Cl)c(Cl)nc2c(C#N)cnn12", "note": "[compound 13]", "chromatographic logP": 4.68}, {"smiles": "N#Cc1cnn2c(NCC3CC3)c(-c3c(F)cc(F)cc3F)c(Cl)nc12", "note": "[compound 54]", "chromatographic logP": 3.63}, {"smiles": "C[C@H](Nc1c(-c2c(F)cc(F)cc2F)c(Cl)nc2c(C#N)cnn12)C(F)(F)F", "note": "[compound 7]", "chromatographic logP": 3.69}, {"smiles": "N#Cc1cnn2c(N3CCCCC3)c(-c3c(F)cccc3Cl)c(Cl)nc12", "note": "[compound 21]", "chromatographic logP": 4.32}, {"smiles": "CC(C)CN(C)c1c(-c2c(F)cc(F)cc2F)c(Cl)nc2c(C#N)cnn12", "note": "[compound 108]", "chromatographic logP": 4.37}, {"smiles": "N#Cc1cnn2c(N3CCC(F)CC3)c(-c3c(F)cccc3Cl)c(Cl)nc12", "note": "[compound 34]", "chromatographic logP": 3.82}, {"smiles": "C=C(C)CN(C)c1c(-c2c(F)cc(F)cc2F)c(Cl)nc2c(C#N)cnn12", "note": "[compound 110]", "chromatographic logP": 4.24}, {"smiles": "CO/N=C\\c1cnn2c(NC(C)C(C)(C)C)c(-c3ccc(F)cc3Cl)c(Cl)nc12", "note": "(centres unmarked) [Example 402, 3-methoximino-5-chloro-6-(2-chloro-4-fluorophenyl)-7-(1,2,2-trimethylpropylamino)pyrazolo[1,5a]pyrimidine]", "chromatographic logP": 5.48}, {"smiles": "N#Cc1cnn2c(N3CCC(F)(F)CC3)c(-c3c(F)cc(F)cc3F)c(Cl)nc12", "note": "[compound 230]", "chromatographic logP": 3.81}, {"smiles": "CC(C)CN(C)c1c(-c2c(F)cccc2Cl)c(Cl)nc2c(C#N)cnn12", "note": "[compound 46]", "chromatographic logP": 4.51}, {"smiles": "CC1CCN(c2c(-c3ccccc3Cl)c(Cl)nc3c(C#N)cnn23)CC1", "note": "[compound 95]", "chromatographic logP": 4.78}, {"smiles": "CCC(C)Nc1c(-c2c(F)cc(F)cc2F)c(Cl)nc2c(C#N)cnn12", "note": "(centres unmarked) [compound 50]", "chromatographic logP": 3.89}]}]}
